Experimental data published in US20160052936A1, “SPIROINDOLINE DERIVATIVES FOR USE AS GONADOTROPIN-RELEASING HORMONE RECEPTOR ANTAGONISTS” (BAYER PHARMA AKTIENGESELLSCHAFT, priority 2013, published 2016).

Tests used:
[1] = molecular target: T1, human GnRH receptor (Homo sapiens, UniProt P30968); experiment: IP-One HTRF assay with buserelin stimulation; format: cell-based; details: CHO cells stably expressing human GnRH receptor; buserelin at EC80; read-out: Potency in IP-One HTRF assay with buserelin (at EC80) stimulation, given as IC50
T1 construct: host or cells: CHO cells stably expressing human GnRH receptor (line established by Prof. Thomas Gudermann)
T1 sequence (P30968 1-328): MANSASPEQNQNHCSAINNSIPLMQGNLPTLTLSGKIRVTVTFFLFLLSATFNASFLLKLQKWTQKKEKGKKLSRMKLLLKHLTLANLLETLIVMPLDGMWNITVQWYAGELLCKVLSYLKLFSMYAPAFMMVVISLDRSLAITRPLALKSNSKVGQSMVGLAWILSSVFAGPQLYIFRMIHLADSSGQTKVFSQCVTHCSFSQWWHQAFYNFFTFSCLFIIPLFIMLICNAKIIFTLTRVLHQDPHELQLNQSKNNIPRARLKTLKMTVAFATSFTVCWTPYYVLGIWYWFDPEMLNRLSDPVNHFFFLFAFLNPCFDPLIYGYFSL
Outline: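 CHO cells stably expressing human GnRH receptor, preincubated 1 h with IP1-d2 at 37 °C, treated with compound and EC80 buserelin (LiCl present) for 1 h at 37 °C; IP1 measured by HTRF (665/620 nm ratio) after lysis 1 h at 22 °C. Ten concentrations, 20 μM–1 nM, duplicate; IC50 by 4-parameter fit.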

[2] = molecular target: T2, human GnRHR (Homo sapiens, UniProt P30968); experiment: Tag-Lite receptor binding assay; details: Hek293 cells transiently transfected with human GnRHR; displacement of green-labelled GnRHR binding peptide; read-out: Potency in receptor binding assay using TAG-LITE technology, given as IC50
T2 construct: own knowledge: Tag-lite cells usually carry an N-terminal SNAP-tag fusion; host or cells: Hek293 cells, transiently transfected, supplied frozen
T2 sequence (P30968 1-328): T1 sequence (P30968 1-328)
Text: 2.2. Tag-Lite® Receptor Binding Assay
This binding assay is based on the fluorescence resonance energy transfer between fluorescence donor labelled human GnRHR and a green-labelled GnRHR binding peptide. Compounds interfering with the ligand binding side of the human GnRHR will replace the labelled peptide resulting in a signal decrease. The assay principle was established by Cisbio Bioassays (Bagnols-sur-Cèze Cedex, France) and further details are available on their homepage.
The assay procedure was further optimized for use in-house with reduced assay volumes. Frozen Hek293 cells, transiently transfected with human GnRHR and Terbium-labelling of the receptor, were supplied by Cisbio Bioassays as well as Tag-Lite buffer and green-labelled GnRHR binding peptide. Cells were thawed and transferred to cold Tag-Lite buffer. A volume of 8 μl of this cell suspension were added to 100 nl of a 160-fold concentrated solution of the test compound in DMSO pre-dispensed in a well of a white low-volume 384-well microtiter plate (Greiner Bio-One, Frickenhausen, Germany). The mixture was incubated for 5 min at room temperature. In the next step either 4 μl Tag-Lite buffer or as control 4 μl of an exceeding amount unlabelled binding peptide in Tag-Lite buffer were transferred to the mixture. The green-labelled GnRHR binding peptide was added in a final step at EC50 in a volume of 4 μl Tag-Lite buffer. After an incubation of 1 h at room temperature plates were measured in a microplate reader, e.g. a PHERAstar (BMG Labtechnologies, Offenburg, Germany) by using a specific optic module.
A ratio from the fluorescence emissions at 520 nm (green fluorescence) and at 490 nm (background signal of Terbium-labelled GnRHR) was calculated and the data were normalized (reaction without test compound=0% inhibition of binding of green-labelled peptide; reaction without test compound with exceeding amount unlabelled binding peptide=100% inhibition of binding of green-labelled peptide). On the same microtiter plate, compounds were tested at 10 different concentrations in the range of 12.5 μM to 0.64 nM (12.5 μM, 4.2 μM, 1.4 μM, 0.46 μM, 0.15 μM, 51 nM, 17 nM, 5.7 nM, 1.9 nM and 0.64 nM; dilution series prepared before the assay at the level of the 160-fold conc. stock solutions by serial 1:3 dilutions in 100% DMSO) in duplicate values for each concentration. By using an in-house software, the IC50 values were calculated by a 4 parameter fit.

With O=C(NCc1ncc(C(F)(F)F)cc1Cl)c1ccc2c(c1)C1(CCS(=O)(=O)CC1)[C@H](C1CC1)N2S(=O)(=O)c1ccc(F)cc1 [Example 3.1, (2S)—N-{[3-chloro-5-(trifluoromethyl)pyridin-2-yl]methyl}-2-cyclopropyl-1-[(4-fluorophenyl)sulfonyl]-1,2,2′,3′,5′,6′-hexahydrospiro[indole-3,4′-thiopyran]-5-carboxamide 1′,1′-dioxide] the IC50 [1] was 21 nM and the IC50 [2] was 16.7 nM.
With O=C(NCc1ncc(C(F)(F)F)cc1F)c1ccc2c(c1)C1(CCS(=O)(=O)CC1)[C@H](C1CC1)N2S(=O)(=O)c1ccc(F)cc1 (single isomer, unassigned) [Example 1.1] the IC50 [1] was 93 nM and the IC50 [2] was 230 nM.
With N#Cc1cccc(S(=O)(=O)N2c3ccc(C(=O)NCc4ncc(C(F)(F)F)cc4Cl)cc3C3(CCS(=O)(=O)CC3)[C@@H]2C2CC2)c1 (single isomer, unassigned) [Example 10.1] the IC50 [1] was 14 nM and the IC50 [2] was 10.3 nM.
